According to article PMC9090415, “Discovery of small molecule inhibitors of Plasmodium falciparum apicoplast DNA polymerase” (Journal of Enzyme Inhibition and Medicinal Chemistry, 2022):

Target: P. falciparum apicoplast DNA polymerase (Pf-apPOL) (Plasmodium falciparum, UniProt Q8ILY1)
Test: Fluorescence-based high-throughput DNA polymerase assay (molecular beacon), primary screen and dose-response
Type: biochemical
Conditions: for DNA Pol: 90 min, 10 µM; for % inhibition Apo pol 5': DRC-2, 5'
Outline: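 Single-point screening used 10 µM compound with 20 nM polymerase, 20 nM hairpin substrate and 6 µM dNTPs for 90 min at 25 °C. Confirmatory titrations (2.5–80 µM) followed fluorescence at three times, and IC50 was derived from a fit including a cooperativity term n.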

P. falciparum apicoplast DNA polymerase (Pf-apPOL), sequence (Q8ILY1 entry or part of it): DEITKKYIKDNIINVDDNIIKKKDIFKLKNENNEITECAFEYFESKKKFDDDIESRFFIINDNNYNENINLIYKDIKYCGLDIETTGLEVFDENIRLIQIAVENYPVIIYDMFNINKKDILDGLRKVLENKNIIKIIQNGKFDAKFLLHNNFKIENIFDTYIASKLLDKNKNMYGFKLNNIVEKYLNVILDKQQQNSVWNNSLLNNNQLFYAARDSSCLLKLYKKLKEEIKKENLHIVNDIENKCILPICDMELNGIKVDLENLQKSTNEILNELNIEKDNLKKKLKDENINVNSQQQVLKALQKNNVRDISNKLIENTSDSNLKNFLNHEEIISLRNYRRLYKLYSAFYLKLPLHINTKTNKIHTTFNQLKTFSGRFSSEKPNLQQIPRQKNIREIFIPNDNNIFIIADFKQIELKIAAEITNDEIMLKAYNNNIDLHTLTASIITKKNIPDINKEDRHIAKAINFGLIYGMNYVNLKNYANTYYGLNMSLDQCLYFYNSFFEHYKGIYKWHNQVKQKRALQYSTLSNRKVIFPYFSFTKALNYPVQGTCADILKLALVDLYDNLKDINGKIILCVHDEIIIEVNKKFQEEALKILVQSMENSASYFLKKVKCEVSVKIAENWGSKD

Work on `O=C1c2ccccc2C(=O)N1Oc1ccc([N+](=O)[O-])c([N+](=O)[O-])c1` [Molecule 66] yielded an IC50 (supplemental file 2, sheet IC50 nontoxic compounds, Pf-apPOL) of 37 µM.
For `O=C(c1c[nH]c2ncccc12)N1CCCCCC1` [Molecule 51, O=C(c1c[nH]c2c1cccn2)N1CCCCCC1], the “DNA Pol” value ('DNA Pol', screening value, unit not given) was 25, the “% inhibition Apo pol 10'” value (DRC-1, concentration 2.5) was 0.9621% and the “% inhibition Apo pol 10'” value (DRC-1, concentration 5) was 3.05%. For the same compound, the “% inhibition Apo pol 10'” value (DRC-1, concentration 10) was 7.159%, the “% inhibition Apo pol 10'” value (DRC-1, concentration 20) was 44.6815% and the “% inhibition Apo pol 10'” value (DRC-1, concentration 40) was 69.4342%. The “% inhibition Apo pol 10'” value (DRC-1, concentration 80) was 66.9665%, the “% inhibition Apol 90'” value (DRC-1, 90', concentration 2.5) was 1.194% and the “% inhibition Apol 90'” value (DRC-1, 90', concentration 5) was 0.544%. The “% inhibition Apol 90'” value (DRC-1, 90', concentration 10) was 3.081%, the “% inhibition Apol 90'” value (DRC-1, 90', concentration 20) was 31.7125% and the “% inhibition Apol 90'” value (DRC-1, 90', concentration 40) was 60.4317%. The “% inhibition Apol 90'” value (DRC-1, 90', concentration 80) was 59.6767%, the “% inhibition apPOL 180'” value (DRC-1, 180', concentration 2.5) was -0.2836% and the “% inhibition apPOL 180'” value (DRC-1, 180', concentration 5) was -4.489%. The “% inhibition apPOL 180'” value (DRC-1, 180', concentration 10) was -1.621%, the “% inhibition apPOL 180'” value (DRC-1, 180', concentration 20) was 18.2058% and the “% inhibition apPOL 180'” value (DRC-1, 180', concentration 40) was 46.8298%. The “% inhibition apPOL 180'” value (DRC-1, 180', concentration 80) was 46.9776%, the “% inhibition Apo pol 5'” value (concentration 2.5) was 0.781% and the “% inhibition Apo pol 5'” value (concentration 5) was 2.7%. The “% inhibition Apo pol 5'” value (concentration 10) was 24%, the “% inhibition Apo pol 5'” value (concentration 20) was 38% and the “% inhibition Apo pol 5'” value (concentration 40) was 34%. For the same compound, the “% inhibition Apo pol 5'” value (concentration 80) was 36%, the “% inhibition Apol 40'” value (DRC-2, 40', concentration 2.5) was 4% and the “% inhibition Apol 40'” value (DRC-2, 40', concentration 5) was 4.4%. For the same compound, the “% inhibition Apol 40'” value (DRC-2, 40', concentration 10) was 28%, the “% inhibition Apol 40'” value (DRC-2, 40', concentration 20) was 47% and the “% inhibition Apol 40'” value (DRC-2, 40', concentration 40) was 45%. For the same compound, the “% inhibition Apol 40'” value (DRC-2, 40', concentration 80) was 61%, the “% inhibition ApPOL 90'” value (DRC-2, 90', concentration 2.5) was 2.81% and the “% inhibition ApPOL 90'” value (DRC-2, 90', concentration 5) was 3.55%. The “% inhibition ApPOL 90'” value (DRC-2, 90', concentration 10) was 25%, the “% inhibition ApPOL 90'” value (DRC-2, 90', concentration 20) was 46% and the “% inhibition ApPOL 90'” value (DRC-2, 90', concentration 40) was 45%. For the same compound, the “% inhibition ApPOL 90'” value (DRC-2, 90', concentration 80) was 68%, the “% inhibition apPOL 180'” value (DRC-2, 180', concentration 2.5) was -1% and the “% inhibition apPOL 180'” value (DRC-2, 180', concentration 5) was -0.742%. For the same compound, the “% inhibition apPOL 180'” value (DRC-2, 180', concentration 10) was 17%, the “% inhibition apPOL 180'” value (DRC-2, 180', concentration 20) was 37% and the “% inhibition apPOL 180'” value (DRC-2, 180', concentration 40) was 35%. For the same compound, the “% inhibition apPOL 180'” value (DRC-2, 180', concentration 80) was 72%, the “% inhibition Apol 40'” value (conc 40 (unit not given), 40', DRC-2) was 45% and the “% inhibition ApPOL 90'” value (conc 40 (unit not given), 90', DRC-2) was 45%. The “DNA Pol” value (primary screen hit value, DNA Pol (186 hits)) was 25.
